Test results as given in patent publication US7879792B2, “Synthetic peptide inhibitors of thrombin and thrombin activation of protease activated receptors 1 and 4” (The Regents of the University of Michigan, priority 2005, dated 2011).
Entries after “also recorded” stand apart in the source; their conditions may differ. Where a SMILES comes first, the peptide text is derived from it.

Tests used:
[1] = stability testing in intestinal perfusate; assay type: in vitro ADME; conditions: male, Sprague Dawley, rat, intestinal (jejunal) perfusate, pH 6.5, rat
Method: (§1) Stability testing of the various compounds was performed in buffer, intestinal perfusate, and an intestinal homogenate preparation to assess the potential oral availability of these compounds. Initial studies prepared the tissue for stability studies. The buffer used in stability testing is 10 mM MES (pH 6.5) containing 135 mM NaCl, and 5 mM KCl. To collect intestinal perfusate from rats, male Sprague Dawley rats, 8 to 10 weeks old, weighing 250 to 350 g were fasted 15 to 18 hours with water given ad libitum. Anesthesia was administered by intramuscular injection of pentobarbital/ketamine (40 mg/kg and 80 mg/kg, respectively). The rats were placed on a warming pad under a surgical lamp to maintain body temperature and jejunal intestinal segments were exposed through a midline, abdominal incision. Approximately 20 cm segment of the jejunum (2 to 4 cm distal to the ligament of Treitz) was cannulated and the intestinal segments were perfused with 10 mM MES (pH 6.5) containing 135 mM NaCl, and 5 mM KCl at a flow-rate of 0.5 ml/min at 37° C. using a constant infusion pump (Harvard Apparatus, South Natick, Mass.). The collected perfusate was stored at −80° C. until use for ex vivo stability studies. After collection, the perfused intestinal segments were flushed with ice-cold 0.15 M KCl solution and the animal was euthanized and the jejunal intestinal segment detached. The inner intestinal tissue layers are scraped out and homogenized in MES buffer (pH 6.5) in a ratio of 1 part of intestinal tissue to 5 parts buffer. Total protein content of the perfusate and the homogenate were determined using a Biorad protein assay kit. The intestinal homogenate samples were used immediately or rapidly frozen at −80° C. until stability analysis.
The actual stability testing protocol is as follows: A 0.1 ml aliquot of the synthetic peptide solution (1 mg/ml) was added to 0.9 ml of MES buffer, pH 6.5, intestinal perfusate, or intestinal homogenate at 37° C. Samples were mixed by vortexing and 100 microliter aliquots were removed over a 60 to 90 minute period for analysis of breakdown products. The 100 microliter sample aliquots were diluted 10 fold with water and subjected to solid phase extraction using a Waters Oasis HLB column. Briefly, the columns were preconditioned by passing 1 ml of MeOH and 1 ml of water over the column, and 1 ml of sample was added to the column. The column was washed with 5% methanol:95% water solution to remove proteins and salts, then eluted with 1 ml of 100% methanol. The methanol was removed by vacuum, and the sample was reconstituted in mobile phase for LC/MS/MS analysis.
LC/MS/MS analysis was performed on a HP1100 HPLC (Hewlett Packard) interfaced with a Quattro II MS/MS detector (Waters/Micromass). For the HPLC separation, a 10 μL aliquot of sample in a mobile phase consisting of an equal volume mixture of acetonitrile/water containing 0.5% formic acid was injected onto a 150 mm×2.2 mm, 5 μm C8 column (Higgins Analytical Inc) and developed at a flow rate of 0.2 ml/min for 5 minutes. The MS detector was used in single ion recording mode at a cone voltage of 50 Volts.

[2] = stability testing in MES buffer (pH 6.5); assay type: physicochemical; conditions: 37° C., read-out: t1/2 (min) MES Buffer (pH 6.5)
Method: as §1
The actual stability testing protocol is as follows: A 0.1 ml aliquot of the synthetic peptide solution (1 mg/ml) was added to 0.9 ml of MES buffer, pH 6.5, intestinal perfusate, or intestinal homogenate at 37° C. Samples were mixed by vortexing and 100 microliter aliquots were removed over a 60 to 90 minute period for analysis of breakdown products. […]

C57BL6 mice = assay: Rose Bengal model for arterial thrombosis, time to carotid artery occlusion; assay type: in vivo, mouse; conditions: 0.2 to 3.22 mg/kg IP
Excerpt: C57BL6 mice 6 to 16 weeks of age were anesthetized by intraperitoneal injection with sodium pentobarbital and placed in the supine position on a dissecting microscope (Nikon SMZ-2T, Mager Scientific, Inc., Dexter, Mich.). A midline surgical incision was made to expose the right common carotid artery and a Doppler flow probe (Model 0.5 VB, Transonic Systems, Ithaca, N.Y.) is placed under the vessel. The probe was connected to a flowmeter (Transonic Model T106) and was interpreted with a computerized data acquisition program (Windaq, DATAQ Instruments, Arkron, Ohio). Rose Bengal (4,5,6,7-tetrachloro-3′,6-dihydroxy-2,4,5,7-tetraiodospiro(isobenzofuran-1(3H), 9 [9H] xanthan)-3-1 dipotassium salt) (Fisher Scientific, Fair Lawn, N.J.) at 50 mg/kg in 0.9% saline) was then injected into the tail vein in a 0.12 ml volume (Eitzman et al., Blood 95, 577 (2000)). After injection into the tail vein, a green laser light (Melles Griot, Carlsbad, Calif.) at a wavelength of 540 nm was applied 6 cm from the carotid artery. Flow is monitored continuously from the onset of injury. The time to occlusion was determined only after the vessel remained closed with a cessation of blood flow for 20 min. […] These investigations indicate that these compounds are able to prevent thrombosis in the whole animal in vivo.

[3] = tested on: normal human lung fibroblasts (NHLF); assay: α-thrombin-induced calcium mobilization in normal human lung fibroblasts; assay type: cell-based; conditions: 2 nM alpha thrombin
Method: The second assay developed to assess peptides from the combinatorial libraries uses inhibition of α-thrombin-induced calcium mobilization in fibroblasts. Normal human lung fibroblasts (NHLF) were purchased from Clonetics, San Diego, Calif., an affiliate of Bio-Wittaker, Walkersville, Md. The cytoplasmic free Ca^2+ concentration ([Ca^2+]i) was measured using the fluorescent Ca^2+ indicator fura-2 (Molecular Probes, Inc., Eugene, Oreg.). Suspension of fibroblasts in Hepes-Tyrode's buffer were loaded with fura-2 by incubation at 37° C. with 2 μM fura-2/acetoxymethyl ester for 45 minutes according to the method of Rasmussen et al., J. Biol. Chem. 268, 14322 (1993). The labeled fibroblasts were separated from excess probe by washing by centrifugation at 1000 rpm (180 xg). Aliquots of the labeled fibroblasts were transferred into a quartz cuvette with a magnetic stirrer, which was then placed in a thermostatically controlled chamber at 37° C. in a fluorescence spectrophotometer (Perkin-Elmer LS50B spectrofluorometer, Chicago, Ill.). Reagents, test peptide, and α-thrombin (0.25-2 nM), were sequentially added directly to the cuvette. The excitation wavelengths varied between 340 and 380 nm. Fluorescence was measured by recording emitted light at 510 nm as reported by Fisher et al., Mol Pharm. 35, 195 (1989). The minimum emission was determined on a solubilized fibroblast sample in the presence of 10 mM EDTA; maximum emission was determined on the same sample with 10 mM Ca^2+ added. The intrafibroblast free Ca^2+ concentration was calculated by the method of Grykiewicz et al., J. Biol. Chem. 260, 3440 (1985). The ratio of the fluorescence readings was calculated as R=340/380 nm and processed according to the equation [Ca^2+]i=KD((R−Rmin)/Rmax−R))(Sf2/Sb2) to determine the intrafibroblast free Ca^2+ concentration. The KD for fura-2 was assumed to be 224 nM. Rmax and Rmin are the maximum and minimum fluorescence ratios measured at the end of the experiment, respectively; Sf2 and Sb2 are the fluorescence values at 380 nm in the absence and presence of saturating [Ca^2+], respectively. The reaction was monitored for 3-5 minutes.

| half-life at 0.1 mg/ml ([1]; 37° C., read-out: t1/2 (min) Intestinal Perfusate) [min] | half-life at 0.1 mg/ml ([1]; read-out: t1/2 in intestinal perfusate (converted)) [min] | half-life at 0.1 mg/ml [2] [min] | Structure (SMILES) | time to occlusion of the mouse right carotid artery (C57BL6 mice) | alpha thrombin-induced calcium mobilization ([3]; 0.00038 mM peptide) | inhibition of thrombin-induced calcium mobilization ([3]; 0.003 mM peptide) [%] | inhibition of thrombin-induced calcium mobilization ([3]; 0.08 mM peptide) [%] |
| --- | --- | --- | --- | --- | --- | --- | --- |
| 111 | 120 | 179 | N=C(N)NCCC[C@@H](N)C(=O)N1[C@H](C(=O)N2CCC[C@H]2C(=O)NCC(=O)N[C@@H](Cc2ccccc2)C(N)=O)C[C@@H]2CCCC[C@@H]21 [rOicPGF, D-Arg-Oic-Pro-Gly-Phe, reference compound] (HELM PEPTIDE1{[dR].[O=C([C@@H]1C[C@@H]2CCCC[C@@H]2N1[*:1])[*:2]].P.G.F.[am]}$$$$V2.0) | – | – | – | – |
| – | – | – | Cc1ccc(C[C@H](NC(=O)[C@@H](C)NC(=O)[C@@H]2CCCN2C(=O)[C@@H]2C[C@@H]3CCCC[C@@H]3N2C(=O)[C@H](N)CCCNC(=N)N)C(N)=O)cc1 [rOicPaF(p-Me), D-Arg-Oic-Pro-D-Ala-Phe(p-Me)] (HELM PEPTIDE1{[dR].[O=C([C@@H]1C[C@@H]2CCCC[C@@H]2N1[*:1])[*:2]].P.[dA].[Cc1ccc(C[C@H](N[*:1])C(=O)[*:2])cc1].[am]}$$$$V2.0) | significant prolongation; also recorded: progressively prolonged | full recovery | 69 | 97 |
